The nature of assay [1]: Glutathione depletion assay (Michael reaction with reduced glutathione followed by 1H NMR). Conditions: 2 equiv. reduced glutathione, d6-DMSO, 35° C. From the text:
Accordingly, the present compounds may be assessed in vitro by reaction with glutathione as follows:
(with the top securely fastened).
In all the above cases, dis-appearance of the alkene proton signals from the starting material are used to determine the extent of Michael reaction with glutathione.
As would be understood by those of skill in the art, the above experiments can be repeated by varying the equivalents of reduced glutathione (0.5 to 2 equivalents); the reactions can also be run in a mixture of d6-DMSO and D2O; and the temperature of the reaction can also be varied from room temperature to 35° C. (35° C. being used to mimic body temperature). As used herein “majority reaction” means a greater than 50% reduction in alkene proton signal as observed by ^1H NMR.

In assay [2] the test system is experimental autoimmune encephalomyelitis (EAE). As to the kind of experiment: Experimental autoimmune encephalomyelitis (EAE) animal model. It counts as in vivo, mice (C57BL/6). The conditions noted are these: mice, dosed at 60 mg/kg beginning on the day of immunization.
Assay [3] concerns NrF2 (Nuclear factor (erythroid-derived 2)-like 2). The assay is described as follows: NrF2 activation in a whole cell nuclear translocation assay. The assay is classed as cell-based. On the procedure:
Compounds are tested in a NrF2 (Nuclear factor (erythroid-derived 2)-like 2) translocation assay by adapting the methods set forth in U.S. Pat. No. 8,101,373, the disclosure of which is incorporated herein by reference. A result of NrF2 activation in the assay by the present compounds is an indication of their anti-inflammatory activity.
In addition to monomethyl fumarate and dimethyl fumarate, bardoxolone methyl may be used as a positive control.

pEC50: −log10 of the molar value.

Take `COC(=O)/C=C/n1nnn(C)c1=O` [methyl (E)-3-(4-methyl-5-oxo-4,5-dihydro-1H-tetrazol-1-yl)acrylate]: the “time to majority reaction with glutathione (greater than 50% reduction in alkene proton signal by 1H NMR)” value in assay [1] is ≤ 30 h.

Turning to `COC(=O)/C=C/n1nn[nH]c1=O` [methyl (E)-3-(5-oxo-4,5-dihydro-1H-tetrazol-1-yl)acrylate], the “time to majority reaction with glutathione (greater than 50% reduction in alkene proton signal by 1H NMR)” value in assay [1] was ≤ 30 h. In addition, the “onset of disease paralysis” value in assay [2] is reported as “significantly prevents the onset of disease paralysis”.

By pEC50 is commonly meant −log10 of the EC50, conventionally taken in molar units. For the compound `COC(=O)/C=C/C(=O)O` [monomethylfumarate], the pEC50 in assay [3] was ~3.90.

The record behind these values is US10889562B2, “Prodrugs of Nrf2 activating compounds and uses thereof” (Rigel Pharmaceuticals, Inc., priority 2018, dated 2021).
